Measured values as given in the CheMixHub ionic liquid set.
Values joined by “and” are separate entries in the source; they are usually repeats but may differ in a detail not shown here. Equal values may be shown once.

Assay: xn = mol fraction of the nth substance listed

CC(=O)[O-].CCCC[N+]1(C)CCCC1 + O
298.15 K, 101.3 kPa, frequency 100 MHz
Settings | electrical conductivity [S/m]
x1 = 0.017 | 2.62
x1 = 0.163 | 0.985

CCCCCCCCCCCC[N+]1(C)CCCC1.O=C([O-])c1ccccc1O + O
100 kPa
Settings | electrical conductivity [S/m]
298.15 K, x1 = 3.592e-05 | 0.00892
298.15 K, x1 = 3.961e-05 | 0.00933
298.15 K, x1 = 4.883e-05 | 0.0111
308.15 K, x1 = 4.883e-05 | 0.0151
318.15 K, x1 = 3.592e-05 | 0.0144
318.15 K, x1 = 5.39e-05 | 0.02
318.15 K, x1 = 5.759e-05 | 0.0215
328.15 K, x1 = 5.39e-05 | 0.0254
328.15 K, x1 = 5.759e-05 | 0.0262

CCCCCC[n+]1ccn(C)c1.F[B-](F)(F)F + O
Settings | viscosity [mPa·s]
298.15 K, 100 kPa, x1 = 0.0153 | 2.79

CCOCC[n+]1ccn(C)c1.C[C@@H](O)[C@H](N)C(=O)[O-] + O
100 kPa
Settings | viscosity
298.15 K, x1 = 0.619 | 1040 mPa·s
313.15 K, x1 = 0.3647 | 245 mPa·s
323.15 K, x1 = 0.3158 | 118.5 mPa·s
323.15 K, x1 = 0.3647 | 125.5 mPa·s
328.15 K, x1 = 0.3158 | 96.1 mPa·s and 99.5 mPa·s
328.15 K, x1 = 0.5081 | 106 mPa·s
328.15 K, x1 = 1 | 115.4 mPa·s

CC[n+]1ccn(C)c1.O=C([O-])C(F)(F)F + O
101 kPa
Settings | electrical conductivity, 298.15 K [S/m] | electrical conductivity, 313.15 K [S/m] | viscosity, 293.15 K [mPa·s] | viscosity, 298.15 K [mPa·s] | viscosity, 303.15 K [mPa·s] | viscosity, 313.15 K [mPa·s]
x1 = 0.001 | 0.3 | 0.41 | 1.01 | 0.9 | 0.8 | 0.66
x1 = 0.003 | 0.79 | 1.1 | 1.05 | 0.93 | 0.84 | 0.69
x1 = 0.004 | 1.2 | 1.6 | 1.1 | 0.98 | 0.87 | 0.72
x1 = 0.006 | 1.6 | 2.2 | 1.16 | 1.03 | 0.92 | 0.75
x1 = 0.009 | 2 | 2.5 | 1.24 | 1.1 | 0.98 | 0.81
x1 = 0.014 | 2.6 | 3.7 | 1.4 | 1.25 | 1.12 | 0.92
x1 = 0.02 | 3.1 | 4.4 | 1.57 | 1.4 | 1.2 | 0.97
x1 = 0.033 | 4 | 5.6 | 2.01 | 1.75 | 1.54 | 1.21
x1 = 0.051 | 4.4 | 6.6 | 2.53 | 2.2 | 1.92 | 1.5
x1 = 0.065 | 4.6 | 6.9 | 3 | 2.58 | 2.24 | 1.74
x1 = 0.108 | 4.5 | 6.9 | 4.39 | 3.76 | 3.25 | 2.49
x1 = 0.159 | 4.2 | 6.3 | 6.17 | 5.28 | 4.55 | 3.46
x1 = 0.243 | 3.5 | 5.3 | 8.98 | 7.65 | 6.56 | 4.96
x1 = 0.406 | 2.5 | 3.7 | – | – | – | –
x1 = 0.418 | – | – | 14.4 | 12.3 | 10.6 | 8
x1 = 0.502 | 2.2 | 3.4 | 17.3 | 14.8 | 12.6 | 9.5
x1 = 0.53 | 2 | 3.1 | 18.7 | 15.9 | 13.6 | 10.2
x1 = 0.759 | 1.5 | 2.3 | 26.8 | 22.7 | 19.3 | 14.3
x1 = 1 | 1 | 1.6 | 39.5 | 32.9 | 27.5 | 19.9

CCn1cc[n+](C)c1.C[C@H](O)C(=O)[O-] + O
298.15 K, 100 kPa
Settings | viscosity [mPa·s]
x2 = 0.3138 | 32.5
x2 = 0.9696 | 1.82

C[S+](C)C.O=S(=O)([N-]S(=O)(=O)C(F)(F)F)C(F)(F)F + O=C1CCCO1
Settings | electrical conductivity [S/m]
298.15 K, 101 kPa, x2 = 0.92 | 1.57

CCCC[N+](C)(C)C.O=S(=O)([N-]S(=O)(=O)C(F)(F)F)C(F)(F)F + O=S(=O)([N-]S(=O)(=O)C(F)(F)F)C(F)(F)F.[Li+] + O
viscosity [mPa·s], 100 kPa
Settings | 293.15 K | 298.15 K | 303.15 K | 313.15 K | 323.15 K | 333.15 K | 343.15 K | 353.15 K | 363.15 K
x2 = 0.2745, x1 = 0.2745 | 100 | 78 | 59 | 38.1 | 26.5 | 19 | 14.2 | 10.9 | 8.61
x2 = 0.3106, x1 = 0.2745 | 150 | 115 | 88.9 | 53.9 | 35.5 | 24.7 | 18.1 | 13.7 | 10.6
x2 = 0.3509, x1 = 0.2745 | 264 | 192 | 145 | 87.4 | 51 | 34.7 | 24.6 | 18.2 | 13.9
x2 = 0.3868, x1 = 0.2745 | 341 | 245 | 182 | 106 | 65.4 | 43.1 | 30.1 | 21.3 | 16.5
x2 = 0.4308, x1 = 0.2745 | 494 | 401 | 289 | 162 | 99 | 58.8 | 40.6 | 28.8 | 21.2

CC[n+]1ccn(C)c1.O=C([O-])C(F)(F)F + OCC(O)CO
100 kPa
Settings | electrical conductivity, 298.15 K [S/m] | electrical conductivity, 313.15 K [S/m] | viscosity, 293.15 K [mPa·s] | viscosity, 298.15 K [mPa·s] | viscosity, 303.15 K [mPa·s] | viscosity, 313.15 K [mPa·s]
x1 = 0.002 | 0.000383 | 0.0012 | 1382 | 893 | 592 | 280.8
x1 = 0.004 | 0.00069 | 0.00217 | – | – | – | –
x1 = 0.013 | 0.00211 | 0.0066 | 1264 | 818 | 544 | 259.8
x2 = 0.202 | 0.81 | 1.37 | 47 | 38.2 | 31.3 | 22
x2 = 0.3 | 0.71 | 1.23 | 58 | 46.3 | 37.5 | 25.7
x2 = 0.399 | 0.57 | 1.02 | 65.5 | 51.5 | 41.1 | 27.5
x2 = 0.5 | 0.436 | 0.84 | 86 | 66.1 | 51.7 | 33.4
x2 = 0.6 | 0.305 | 0.63 | 115.9 | 86.6 | 66.1 | 40.8
x2 = 0.7 | 0.184 | 0.411 | 177.8 | 128.2 | 94.6 | 55
x2 = 0.8 | 0.08 | 0.199 | 316 | 218.7 | 155.2 | 84.1
x2 = 0.9 | 0.023 | 0.065 | 639 | 427 | 291.2 | 146.8
x2 = 0.956 | 0.0076 | 0.0231 | 983 | 643 | 432 | 210
x2 = 0.979 | 0.00328 | 0.0103 | 1188 | 772 | 514 | 246.5

CC[n+]1ccn(C)c1.O=C([O-])C(F)(F)F + OCCN(CCO)CCO
100 kPa
Settings | electrical conductivity, 298.15 K [S/m] | electrical conductivity, 313.15 K [S/m] | viscosity, 293.15 K [mPa·s] | viscosity, 298.15 K [mPa·s] | viscosity, 303.15 K [mPa·s] | viscosity, 313.15 K [mPa·s]
x1 = 0.006 | 0.00085 | 0.0024 | 878 | 581 | 395 | 197.6
x1 = 0.007 | 0.00084 | 0.00237 | 871 | 576 | 392 | 196.1
x2 = 0.393 | 0.423 | 0.76 | 76.3 | 60 | 47.9 | 32
x2 = 0.501 | 0.287 | 0.54 | 98.1 | 75.4 | 59 | 38.1
x2 = 0.6 | 0.182 | 0.37 | 135.1 | 101 | 77 | 47.7
x2 = 0.692 | 0.109 | 0.237 | 190.6 | 139 | 103.5 | 61.2
x2 = 0.778 | 0.061 | 0.143 | 279.5 | 198.3 | 143.8 | 81.2
x2 = 0.857 | 0.0281 | 0.07 | 413 | 284.7 | 201.3 | 108.7
x2 = 0.931 | 0.0095 | 0.0268 | 621 | 419 | 289.4 | 149.9
x2 = 0.966 | 0.00397 | 0.0113 | 751 | 501 | 344 | 174.6
x2 = 0.98 | 0.0025 | 0.007 | 775 | 518 | 354 | 179.3

CC[n+]1ccn(C)c1.O=C([O-])C(F)(F)F + OCCO
100 kPa
Settings | electrical conductivity, 298.15 K [S/m] | electrical conductivity, 313.15 K [S/m] | viscosity, 293.15 K [mPa·s] | viscosity, 298.15 K [mPa·s] | viscosity, 303.15 K [mPa·s] | viscosity, 313.15 K [mPa·s]
x1 = 0.001 | 0.0126 | 0.0215 | 20.8 | 16.9 | 13.8 | 9.56
x1 = 0.003 | 0.0278 | 0.0473 | 20.8 | 16.8 | 13.8 | 9.54
x1 = 0.009 | 0.065 | 0.111 | 20.6 | 16.7 | 13.7 | 9.53
x1 = 0.015 | 0.106 | 0.18 | 20.5 | 16.6 | 13.7 | 9.49
x2 = 0.489 | 1.36 | 2.23 | 20.6 | 17.5 | 14.9 | 11.1
x2 = 0.602 | 1.48 | 2.25 | 18.4 | 15.5 | 13.2 | 9.84
x2 = 0.71 | 1.33 | 2.06 | 17.2 | 14.5 | 12.3 | 9.09
x2 = 0.783 | 1.11 | 1.72 | 17.2 | 14.3 | 12.1 | 8.83
x2 = 0.843 | 0.89 | 1.41 | 17.6 | 14.6 | 12.2 | 8.81
x2 = 0.894 | 0.63 | 1.03 | 18.4 | 15.1 | 12.5 | 8.95
x2 = 0.934 | 0.415 | 0.69 | 19.3 | 15.8 | 13 | 9.2
x2 = 0.97 | 0.2 | 0.339 | 20.2 | 16.4 | 13.5 | 9.4
